What was measured:
Experiment in all cases: MIC, broth microdilution (CLSI), substance alone or ATB combined with compound at 4 or 8 μg/mL
[1] = test system: SPN 49619; type: cell-based, S. pneumoniae; conditions: for MIC ATB combined with Example / MIC ATB combined with Example compound: SPN 49619; for MIC ATB combined with Example: Example @8 μg/ml; for MIC ATB combined with Example compound: compound @8 μg/ml
Method in brief: (§1)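 Broth microdilution; ca-MHB; 5·10^5 CFU/mL; 35° C, 16-20 h; compound alone or fixed 4/8 μg/mL with antibiotic series; endpoint = no visible growth.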

[2] = test system: SAU 29213; type: cell-based, S. aureus; conditions: for MIC ATB combined with Example / MIC ATB combined with Example compound: SAU 29213; for MIC ATB combined with Example: Example @8 μg/ml; for MIC ATB combined with Example compound: compound @8 μg/ml
Method in brief: as §1

[3] = test system: PAE 105250; type: cell-based, P. aeruginosa; conditions: PAE 105250; for MIC ATB combined with Example: Example @8 μg/ml; for MIC ATB combined with Example compound: compound @8 μg/ml
Method in brief: as §1

[4] = test system: PAE UFR48; type: cell-based, P. aeruginosa; conditions: PAE UFR48; for MIC ATB combined with Example: Example @8 μg/ml; for MIC ATB combined with Example compound: compound @8 μg/ml
Method in brief: as §1

[5] = test system: PAE UFR90; type: cell-based, P. aeruginosa; conditions: PAE UFR90; for MIC ATB combined with Example: Example @8 μg/ml; for MIC ATB combined with Example compound: compound @8 μg/ml
Method in brief: as §1

[6] = test system: KPN BAA-1898; type: cell-based, K. pneumoniae; conditions: for MIC ATB combined with Example: Example @8 μg/ml
Method in brief: as §1

[7] = test system: KPN 6299; type: cell-based, K. pneumoniae; conditions: for MIC ATB combined with Example: Example @8 μg/ml
Method in brief: as §1

[8] = test system: KPN UFR42; type: cell-based, K. pneumoniae; conditions: for MIC ATB combined with Example / MIC ATB combined with Example compound: KPN UFR42; for MIC ATB combined with Example: Example @8 μg/ml; for MIC ATB combined with Example compound: compound @8 μg/ml
Method in brief: as §1

[9] = test system: ECL P99; type: cell-based, E. cloacae; conditions: for MIC ATB combined with Example: Example @8 μg/ml
Method in brief: as §1

[10] = test system: ECO 190317; type: cell-based, E. coli; conditions: for MIC ATB combined with Example: Example @8 μg/ml
Method in brief: as §1

[11] = test system: ECO UFR39; type: cell-based, E. coli; conditions: for MIC ATB combined with Example / MIC ATB combined with Example compound: ECO UFR39; for MIC ATB combined with Example: Example @8 μg/ml; for MIC ATB combined with Example compound: compound @8 μg/ml
Method in brief: as §1

Compound: O=C1N2CC(n3cccn3)=CC(C2)N1OC(F)(F)C(=O)[O-].[Li+] (stereo not shown) [Example 13, lithium difluoro-(7-oxo-3-pyrazol-1-yl-1,6-diaza-bicyclo[3.2.1]oct-3-en-6-yloxy)-acetate]
- MIC ATB combined with Example ([1]; ATB ATM): >32 µg/mL
- MIC ATB combined with Example ([1]; ATB FEP): 0.063 µg/mL
- MIC ATB combined with Example ([1]; ATB FOS): 32 µg/mL
- MIC ATB combined with Example ([1]; ATB MEM): <=0.031 μg/mL
- MIC ATB combined with Example ([1]; ATB PIP): 0.5 µg/mL
- MIC ATB combined with Example compound ([1]; MIC of CIP): 0.5 µg/mL
- MIC ATB combined with Example compound ([1]; MIC of CLI): 0.063 µg/mL
- MIC ATB combined with Example compound ([1]; MIC of CPO): <=0.031 μg/mL
- MIC ATB combined with Example compound ([1]; MIC of DAP): 0.5 µg/mL
- MIC ATB combined with Example compound ([1]; MIC of ERY): 0.063 µg/mL
- MIC ATB combined with Example compound ([1]; MIC of LZD): 1 µg/mL
- MIC ATB combined with Example compound ([1]; MIC of RIF): 0.0078 µg/mL
- MIC ATB combined with Example compound ([1]; MIC of SYN): 0.5 µg/mL
- MIC ATB combined with Example compound ([1]; MIC of VAN): 0.25 µg/mL
- MIC ([1]; Streptococcus pneumoniae): > 32 µg/mL
- MIC ATB combined with Example ([2]; ATB ATM): >32 µg/mL
- MIC ATB combined with Example ([2]; ATB FEP): 2 µg/mL
- MIC ATB combined with Example ([2]; ATB FOS): 0.5 µg/mL
- MIC ATB combined with Example ([2]; ATB MEM): <=0.031 μg/mL
- MIC ATB combined with Example ([2]; ATB PIP): 1 µg/mL
- MIC ATB combined with Example compound ([2]; MIC of CIP): 0.25 µg/mL
- MIC ATB combined with Example compound ([2]; MIC of CLI): 0.063 µg/mL
- MIC ATB combined with Example compound ([2]; MIC of CPO): 0.5 µg/mL
- MIC ATB combined with Example compound ([2]; MIC of DAP): 1 µg/mL
- MIC ATB combined with Example compound ([2]; MIC of ERY): 0.125 µg/mL
- MIC ATB combined with Example compound ([2]; MIC of LZD): 1 µg/mL
- MIC ATB combined with Example compound ([2]; MIC of RIF): 0.0078 µg/mL
- MIC ATB combined with Example compound ([2]; MIC of SYN): 0.25 µg/mL
- MIC ATB combined with Example compound ([2]; MIC of VAN): 1 µg/mL
- MIC ([2]; Staphylococcus aureus, MSSA): 32 µg/mL
- MIC ATB combined with Example ([3]; ATB ATM): 8 µg/mL
- MIC ATB combined with Example ([3]; ATB FEP): 8 µg/mL
- MIC ATB combined with Example ([3]; ATB FOS): >128 µg/mL
- MIC ATB combined with Example ([3]; ATB MEM): 2 µg/mL
- MIC ATB combined with Example ([3]; ATB PIP): 32 µg/mL
- MIC ATB combined with Example compound ([3]; MIC of CIP): 0.063 µg/mL
- MIC ATB combined with Example compound ([3]; MIC of CPO): 16 µg/mL
- MIC ATB combined with Example ([4]; ATB ATM): 8 µg/mL
- MIC ATB combined with Example ([4]; ATB FEP): 32 µg/mL
- MIC ATB combined with Example ([4]; ATB FOS): 16 µg/mL
- MIC ATB combined with Example ([4]; ATB MEM): 0.5 µg/mL
- MIC ATB combined with Example ([4]; ATB PIP): 32 µg/mL
- MIC ATB combined with Example compound ([4]; MIC of CIP): 4 µg/mL
- MIC ATB combined with Example compound ([4]; MIC of CPO): >32 µg/mL
- MIC ATB combined with Example ([5]; ATB ATM): 16 µg/mL
- MIC ATB combined with Example ([5]; ATB FEP): 8 µg/mL
- MIC ATB combined with Example ([5]; ATB FOS): 8 µg/mL
- MIC ATB combined with Example ([5]; ATB MEM): 2 µg/mL
- MIC ATB combined with Example ([5]; ATB PIP): >32 µg/mL
- MIC ATB combined with Example compound ([5]; MIC of CIP): 1 µg/mL
- MIC ATB combined with Example compound ([5]; MIC of CPO): 16 µg/mL
- MIC ATB combined with Example ([6]; ATB ATM, KPN BAA-1898): 4 µg/mL
- MIC ATB combined with Example ([6]; ATB FEP, KPN BAA-1898): 0.25 µg/mL
- MIC ATB combined with Example ([6]; ATB FOS, KPN BAA-1898): 4 µg/mL
- MIC ATB combined with Example ([6]; ATB MEM, KPN BAA-1898): 0.25 µg/mL
- MIC ATB combined with Example ([6]; ATB PIP, KPN BAA-1898): 32 µg/mL
- MIC ([6]; Klebsiella pneumoniae, BAA1898): 16 µg/mL
- MIC ATB combined with Example compound ([6]; MIC of CIP, compound @8 μg/ml, KPN BAA-1898): 16 µg/mL
- MIC ATB combined with Example ([7]; ATB ATM): <=0.031 μg/mL
- MIC ATB combined with Example ([7]; ATB FEP): 0.063 µg/mL
- MIC ATB combined with Example ([7]; ATB FOS): 8 µg/mL
- MIC ATB combined with Example ([7]; ATB MEM): <=0.031 μg/mL
- MIC ATB combined with Example ([7]; ATB PIP): 0.5 µg/mL
- MIC ATB combined with Example compound ([7]; MIC of CIP, compound @8 μg/ml): 32 µg/mL
- MIC ATB combined with Example ([8]; ATB ATM): 0.125 µg/mL
- MIC ATB combined with Example ([8]; ATB FEP): <=0.031 μg/mL
- MIC ATB combined with Example ([8]; ATB FOS): 4 µg/mL
- MIC ATB combined with Example ([8]; ATB MEM): >32 µg/mL
- MIC ATB combined with Example ([8]; ATB PIP): >32 µg/mL
- MIC ([8]; Klebsiella pneumoniae): 16 µg/mL
- MIC ATB combined with Example compound ([8]; MIC of CIP): >32 µg/mL
- MIC ATB combined with Example compound ([8]; MIC of CPO): 32 µg/mL
- MIC ATB combined with Example ([9]; ATB ATM, ECL P99): 2 µg/mL
- MIC ATB combined with Example ([9]; ATB FEP, ECL P99): <=0.031 μg/mL
- MIC ATB combined with Example ([9]; ATB FOS, ECL P99): 32 µg/mL
- MIC ATB combined with Example ([9]; ATB MEM, ECL P99): <=0.031 μg/mL
- MIC ATB combined with Example ([9]; ATB PIP, ECL P99): 4 µg/mL
- MIC ([9]; Enterobacter cloacae): 16 µg/mL
- MIC ATB combined with Example compound ([9]; MIC of CIP, compound @8 μg/ml, ECL P99): <=0.031 μg/mL
- MIC ATB combined with Example ([10]; ATB ATM, ECO 190317): <0.031 µg/mL
- MIC ATB combined with Example ([10]; ATB FEP, ECO 190317): <0.031 µg/mL
- MIC ATB combined with Example ([10]; ATB FOS, ECO 190317): <0.125 µg/mL
- MIC ATB combined with Example ([10]; ATB MEM, ECO 190317): <0.031 µg/mL
- MIC ATB combined with Example ([10]; ATB PIP, ECO 190317): <0.031 µg/mL
- MIC ([10]; Escherichia coli): 4 µg/mL
- MIC ATB combined with Example compound ([10]; MIC of CIP, compound @8 μg/ml, ECO 190317): <0.031 µg/mL
- MIC ATB combined with Example ([11]; ATB ATM): <0.031 µg/mL
- MIC ATB combined with Example ([11]; ATB FEP): <0.031 µg/mL
- MIC ATB combined with Example ([11]; ATB FOS): <0.125 µg/mL
- MIC ATB combined with Example ([11]; ATB MEM): <=0.031 μg/mL
- MIC ATB combined with Example ([11]; ATB PIP): <0.031 µg/mL
- MIC ([11]; Escherichia coli): 8 µg/mL
- MIC ATB combined with Example compound ([11]; MIC of CIP): <0.031 µg/mL
- MIC ATB combined with Example compound ([11]; MIC of CPO): <0.031 µg/mL

From patent US20200024278A1, “COMPOSITION COMPRISING ANTIBIOTIC COMPOUND AND AN HETEROCYCLIC COMPOUND AND THEIR USE IN PREVENTING OR TREATING BACTERIAL INFECTIONS” (MUTABILIS, priority 2016, published 2020)
